Test results from patent publication US6319501A, “Method of immunizing against hepatitis B virus” (Health Research, Inc., priority 1993, dated 2001).
pIC50: −log10 of the molar value. Where two headings read alike, the source gives them in different places. Ends that are not written are not given here.

Assays:
[1] = test system: antibodies recognizing the (139-147) segment of the S-protein (reaction with HBsAg); assay: Inhibition of attachment of antibodies recognizing S(139-147) to HBsAg-coated wells (comparative antigenicity of replacement set peptides); assay type: binding, rabbit
Protocol: FIG. 1. concerns the relative inhibitory activity of replacement set peptides on the reaction of antibodies recognizing the (139-147) segment of the S-protein with HBsAg. The concentration of each peptide at which the attachment of antibodies to solid phase HBsAg was reduced by 50% (C50) was determined. C50 of the parent peptide (sequence shown on top of the bars) was divided by C50 for each inhibitory peptide and the log10 of the ratio was plotted on the ordinate. Amino acid residues replacing amino acids in the parent sequence are shown on the top of each bar. The sequence numbers of residues being replaced in the parent sequence are shown on the bottom of the bar groups.
Wells of 96-well polystryene plates (Removawell, Immunolon II, Dynatech Laboratories, Chantilly, Va.) were coated with HBsAg subtype adw (200 μl; 100 μg/ml in 0.01 M Tris HCl pH 8.8) overnight at 20° C. The wells were then coated with a mixture of bovine serum albumin (BSA) and gelatin (10 and 2.5 mg/ml, respectively) in 0.14 M NaCl, 0.01 M Tris, 0.02% NaN3 (TS). […] The diluted antiserum, without added peptides, and normal rabbit serum served as positive and negative controls, respectively. Aliquots of the diluted rabbit sera with or without the peptides (200 μl) were added to the HBsAg-coated wells. After overnight incubation at 25° C., the plates were washed with 200 μl of TS and ^125 I-labeled anti-rabbit IgG (Kirkegaard & Perry Laboratories, Inc., Gaithersburg, Md.; 200,000 cpm diluted 1:1 with TSBG) were added to the wells. After incubation for 2 hours at 37° C., the wells were washed with TS and counted for radioactivity. Radioactivity, corrected for counts corresponding to diluted normal rabbit serum, was plotted against the log10 of the concentration of the respective peptides. […]

[2] = test system: Murine T cells primed to rHBsAg, subtype ad; assay: In vitro proliferation (3H-TdR incorporation) of T cells from Balb/c mice primed with rHBsAg subtype ad (FIG. 4); assay type: cell-based, mouse (Balb/c); details: mice primed with HBsAg ad
Source text: FIG. 4. depicts relative T cell-stimulatory activity of replacement set peptides expressed as a percentage of stimulation elicited by the parent peptide. Murine T cells were obtained by nylon wool column purification of Balb/c lymph node cells primed to rHBsAg, subtype ad (RecombiVax HB, Merck Sharp & Dohme). For comparison the T cells-stimulatory response to rHBsAg, subtype ad (97,024), rHBsAg subtype ayr (64,878), parent peptide (44,916=100%) and media control (1,873) was examined at optimal concentrations for each antigen. Values shown in parentheses are mean cpms corresponding to ^3 H-TdR incorporation measured in triplicate. Amino acid residues replacing amino acids in the parent sequence are shown at the bottom of the bars.
(§1) Balb/c mice were immunized in the hind foot pads, either with 0.5 μg of RecombiVax HB or with HBsAg subtype ayw (Scripps Laboratories), on day 0, 14 and 21. One week after the last injection, the animals were sacrificed and the popliteal lymph nodes were collected. The nodes were teased apart and the dispersed cells were then washed twice in RPMI-1640 medium without any serum supplement and once in RPMI medium containing 10% bovine calf serum. A cell count was made and the cell concentration was adjusted so that T cell enrichment was then done at 1×10^8 cells/0.6g of packed nylon wool column. […]

[3] = test system: Murine T cells primed with HBsAg, subtype ayr; assay: In vitro proliferation (3H-TdR incorporation) of T cells from Balb/c mice primed with HBsAg subtype ayr (FIG. 3); assay type: cell-based, mouse (Balb/c)
Source text: FIG. 3. depicts relative T cell-stimulatory activity of replacement set peptides expressed as a percentage of stimulation elicited by the parent peptide. Murine T cells were obtained by nylon wool column purification of Balb/c lymph node cells primed with HBsAg, subtype ayr (Scripps Laboratories, San Diego, Calif.). For comparison, the T cell-stimulatory response to rHBsAg, subtype ad(32,657), HBsAg subtype ayr (54,640), parent peptide (16,073=100%) and media control (330) were examined at optimal concentrations for each antigen. Values shown in parentheses are mean cpms corresponding to ^3 H-TdR incorporation measured in triplicate. Amino acid residues replacing amino acids in the parent sequence are shown at the bottom of the bars.
as §1

[4] = test system: T-helper (Th) lymphocytes; details: humans immunized with HBsAg; linear and cyclic forms; cited from earlier work
[5] = test system: T-helper (Th) lymphocytes; details: mice immunized with HBsAg; linear and cyclic forms; cited from earlier work
[6] = test system: Human peripheral blood mononuclear cells (PBMC); assay: In vitro proliferation (3H-TdR incorporation) of human PBMC / T cells from rHBsAg vaccinees (FIG. 5); assay type: cell-based; details: humans immunized with recombinant HBsAg vaccine
Source text: Human peripheral blood mononuclear cells (PBMC) were obtained from volunteers who had received the full course of the rHBsAg vaccine (Merck Sharp & Dohme). Donor 1 .box-solid. Donor 2 z1 Donor 3 .quadrature. Donor 4 z2 For comparison average T cell-stimulatory response to rHBsAg subtype ad (146,478), parent peptide (96,930=100%) and media control (1,147) was examined at optimal concentrations for each antigen. Values expressed in parentheses are mean cpms of ^3 H-TdR incorporation of triplicate wells. Amino acid residues replacing amino acids in the parent sequence are shown at the bottom of the bars.
Sixty ml of blood was collected (in heparin containing syringes) from the antecubital vein of individuals who were vaccinated with a recombinant hepatitis B vaccine (RecombiVax HB; Merck, Sharp and Dohme). […]
Peripheral blood mononuclear cells were cultured in 96 well flat bottom plates at a density of 2.5×10^5 cells/100 μl per well in RPMI-1640 medium supplemented with 2mM glutamine, 100 units/ml penicillin, 100 μg/ml streptomycin, 50 μg/ml gentamycin and 10% human AB-positive serum. […] Proliferation, as measured by thymidine incorporation, was determined by liquid scintillation spectroscopy. Results are expressed as mean counts per minute (cpm) for triplicate cultures.

[7] = test system: native HBsAg; details: after polymerization with glutaraldehyde; cited from earlier work
[8] = test system: anti-HBs; details: cited from earlier work

Substance | inhibition of attachment of anti-HBs to HBsAg-coated wells, preliminary results (in words) [1] | T-cell proliferative response / tolerance of replacement (in words) [2] | T-cell proliferative response / tolerance of replacement (in words) [3] | also measured
CTKPTDGNC [S(139-147) peptide with threonine at position 143, corresponding to S-protein subtype ad] | inhibited the attachment of anti-HBs to HBsAg-coated wells | much more effective in eliciting proliferation of T-cells from mice immunized with HBsAg ad in comparison with the ay specific peptide | most favored replacement | –
peptide S(139-147): peptide S(139-147) in both linear and cyclic forms (LYLPAGGSS; also: linear and cyclic forms; UniProt P03141 139-147, looked up, fragment) | – | – | – | proliferation of T-helper lymphocytes (in words) [4]: elicited the proliferation of T-helper (Th) lymphocytes; proliferation of T-helper lymphocytes (in words) [5]: elicited the proliferation of T-helper (Th) lymphocytes
CTKPSDGNC | inhibited the attachment of anti-HBs to HBsAg-coated wells | most tolerated | much more effective in eliciting proliferation of T-cells from mice immunized with HBsAg ayr in comparison with the ad-specific peptide | pIC50 ([1]; HBsAg-coated wells, rabbit antiserum to S(135-155) diluted 150-fold, read-out: concentration of peptide at which a 50% inhibition of anti-HBs attachment occurred (C50)): 7.25; T-cell proliferative response / tolerance of replacement (in words) [6]: responded virtually equally
cyclic peptide corresponding to the sequence S(139-147): cyclic peptide S(139-147) from the S-protein subtype adw with a disulfide bond between residues (139-147) | – | – | – | antibodies elicited (in words) [7]: elicited antibodies reactive with native HBsAg; binding / affinity to anti-HBs (in words) [8]: affinity similar to that determined for the reaction between native HBsAg and anti-HBs
